Assay results published in patent US8158828B2, “Nuclear receptor binding agents” (priority 2005, dated 2012).
Entries after “also recorded” stand apart in the source; their conditions may differ.

Tests used:
[1] = tested on: TRAP positive multinucleated osteoclasts; test: TRAP positive multinucleated osteoclasts from bone marrow cells; type: cell-based, rat; details: RANKL and GMCSF, 12 days
Procedure: FIG. 7: Effect of the indicated compounds on TRAP positive multinucleated osteoclasts. Bone marrow cells from rat femur was cultured in Alpha MEM+10% csFBS without phenol red in the presence or absence of 30 ng/ml RANKL and 10 ng/ml GMCSF. The cells were treated for 12 days and were stained for tartarate resistant acid phosphatase activity (TRAP) and multinucleated osteoclasts were counted.
Bone marrow cells isolated from rat femur were cultured in Alpha MEM without phenol red+10% sterile FBS without phenol red in the presence or absence of […] RANKL and 10 ng/ml GMCSF. The cells were treated for 12 days were stained for tartarate resistant acid phosphatase activity (TRAP) positive multinucleated osteoclasts and were counted.

ER-β = target: T1, ER-β (Rattus norvegicus, UniProt Q62986); test: ER-β transactivation, ERE-LUC in COS or 293 cells; type: cell-based; details: COS or 293 cells
T1 construct: expressed in transfected cells; host or cells: COS or 293 cells
Procedure: (§1) FIG. 2: Effect of the indicated compounds on ER-β transactivation. COS or 293 cells plated in DME without phenol red+10% csFBS at 90,000 cells per well of a 24 well plate were transfected with 0.25 μg ERE-LUC, 0.02 μg CMV-LUC (Renilla) and 50 ng of ER-β by lipofectamine. Twenty four hours after transfection, the cells were treated as indicated in the figure, harvested 48 hrs after transfection and were assayed for firefly and renilla luciferase.
as §1, with “6:” for “2:”, “and” for “and were”
as §1, with “10:” for “2:”, “DME+10%” for “DME without phenol red+10%”
(§2) All the receptors were cloned from rat tissue into the PCR3.1 vector backbone. […] Cells were harvested 48 hrs after transfection, and assayed for firefly and Renilla luciferase activity.
as §2

uterus = test: In vivo estrogenic activity, uterine weight; set-up: species or system rat; details: female rats; for estrogenic activity in terms of uterine weight: compound alone
Procedure: Rats that were administered the vehicle alone served as controls.

[2] = Metabolic stability in human liver microsomes; details: 1 μM substrate, 0.5 mg/mL microsomes
Procedure: Each substrate or reference control was dissolved at a concentration of 10 mM in DMSO, from which a 5 μM spiking solution was prepared by dilution in water. Substrates (1 μM) were incubated in the presence of human liver microsomes (Xenotech LLC, Kansas City Mo.) at 0.5 mg/mL fortified with an NADPH regenerating system at 37° C. and pH 7.4. The NADPH regenerating system consisted of glucose-6-phosphate dehydrogenase (1 units/mL) in 0.05M K2HPO4. Duplicate incubations were performed in 96-well polypropylene cluster tubes in a final volume of 250 μL per reaction. At 0, 2, 4, 6, 10, 30, and 60 minutes a stop solution (300 μL acetonitrile) was added to aliquots of the reaction mixture. Precipitated protein was removed by centrifugation (3000 rpm for 15 minutes) and the supernatants were transferred to clean 96-well plates for analysis.
The samples were injected onto a Phenomenex Luna hexylphenyl 50×2 mm i.d. 5 uM, column fitted with a guard column. An isocratic mobile phase consisting of 50% acetonitrile and 0.1% formic acid in water was used at a flow rate of 0.3 mL/min. The protonated molecular ion (M+H)^+ of the analyte was monitored by MDS/Sciex API 4000QTrap triple quadrupole mass spectrometer using electrospray positive mode ionization with a temperature of 500° C. and a spray voltage of 4000V. Total analysis time was 1.5 min per sample.
Metabolic stability was defined as the amount of substrate metabolized by the incubation with hepatic microsomes and expressed as a percentage of the initial amount of substrate (% remaining) based on peak area. Initial substrate concentration for each analyte was 1 μM. The initial peak area of each substrate was determined at time zero and metabolic stability was assessed based on the change in analyte peak area from time 0 min to a single fixed timepoint for each sample (2-60 min, representative timepoints are shown in Table 2 below).

ER-α = target: T2, ER-α (Rattus norvegicus, UniProt P06211); test: ER-α transactivation, ERE-LUC in COS or 293 cells; type: cell-based; set-up: % estardiol activity, ER-α: dose or concentration left out as unconfirmed
T2 sequence (P06211 1-600): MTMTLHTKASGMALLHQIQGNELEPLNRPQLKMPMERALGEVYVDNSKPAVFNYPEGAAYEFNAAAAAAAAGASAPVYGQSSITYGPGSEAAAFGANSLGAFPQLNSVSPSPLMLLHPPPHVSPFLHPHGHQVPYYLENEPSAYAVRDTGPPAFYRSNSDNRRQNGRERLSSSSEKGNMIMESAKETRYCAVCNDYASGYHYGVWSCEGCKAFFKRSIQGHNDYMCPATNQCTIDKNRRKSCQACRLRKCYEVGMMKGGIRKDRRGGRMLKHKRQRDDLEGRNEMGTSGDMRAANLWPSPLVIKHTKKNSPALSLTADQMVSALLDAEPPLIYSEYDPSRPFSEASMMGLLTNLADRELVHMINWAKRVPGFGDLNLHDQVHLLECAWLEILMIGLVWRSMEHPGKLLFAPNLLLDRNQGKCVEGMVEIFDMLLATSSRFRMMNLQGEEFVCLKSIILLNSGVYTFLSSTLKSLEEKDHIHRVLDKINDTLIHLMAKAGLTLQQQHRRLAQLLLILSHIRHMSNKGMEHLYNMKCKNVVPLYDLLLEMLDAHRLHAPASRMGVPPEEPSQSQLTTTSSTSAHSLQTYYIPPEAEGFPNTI
Procedure: FIG. 1: Effects of the indicated compounds on ER-α transactivation. COS or 293 cells plated in DME without phenol red+10% charcoal stripped fetal bovine serum (csFBS) at 90,000 cells per well of 24 well plates were transfected with 0.25 μg ERE-LUC, 0.02 μg CMV-LUC (Renilla) and 25 ng of ER-α by lipofectamine. Twenty four hours after transfection, the cells were treated as indicated in the figure, harvested 48 hrs after transfection and were assayed for firefly and renilla luciferase.
as §1, with “5:” for “2:”, “ER-α” for “ER-β”, “[…]” for “50”
as §1, with “9:” for “2:”, “ER-α” for “ER-β”, “csFBS” for “csFBS at 90,000 cells”, “25” for “50”
Also 25 ng of ER-α (FIGS. 1, 5, and 9), 50 ng of ER-β (FIGS. 2, 6 and 10) or 12.5 ng of AR (FIG. 3) were introduced by lipofectamine. All the receptors were cloned from rat tissue into the PCR3.1 vector backbone. […] Cells were harvested 48 hrs after transfection, and assayed for firefly and Renilla luciferase activity.
Also 25 ng of ER-α), 50 ng of ER-β or 12.5 ng of AR were introduced by lipofectamine. All the receptors were cloned from rat tissue into the PCR3.1 vector backbone. […] Cells were harvested 48 hrs after transfection, and assayed for firefly and Renilla luciferase activity.

[3] = tested on: pS2 (gene encoding the trefoil peptides) in MCF-7 cells; test: pS2 gene expression in MCF-7 cells (realtime RT-PCR); type: cell-based; details: 16 hrs
Procedure: MCF-7 cells were plated at 500,000 cells per well of a 6 well plate. RNA was isolated and the message levels of pS2 (gene encoding the trefoil peptides) measured and normalized to 18S ribosomal RNA by realtime polymerase chain reaction (rtPCR).
FIG. 11: Agonistic activity of the indicated compounds in MCF-7 cells. MCF-7 cells were plated at 500,000 cells per well of a 6 well plate. RNA was isolated and the message levels of pS2 gene measured and normalized to 18S ribosomal RNA by realtime rtPCR.
MCF-7 cells were plated at 500,000 cells per well of a 6 well plate. The cells were serum starved for 3 days and then were treated as above for 16 hrs. RNA was isolated and gene expression levels assessed by realtime RT-PCR, following normalization to 18S ribosomal RNA.

PC-3 cells = test: Androgen independent prostate cancer cell growth; type: cell-based; details: for PC-3 growth inhibition, qualitative grading: in vitro, data not shown; for inhibition at 10 µM: Homo sapiens, PC-3, 72 hrs
Procedure: PC-3 cells were plated in RPMI+10% csFBS at 6000 cells per well of a 96 well plate. Medium was changed to RPMI+1% csFBS without phenol red and then treated for 72 hrs with increasing concentrations of SERMs.
The prostate cancer cell line PC-3 was plated in RPMI+10% csFBS at 6000 cells per well of a 96 well plate. Medium was changed to RPMI+1% csFBS without phenol red and cells were treated for 72 hrs with increasing concentrations of SERMs.
PC-3 growth inhibition was determined qualitatively, in vitro, and represented as a grading system based on the ability of the SERMs to inhibit growth. The number −4 is for compounds that induced 100% growth inhibition at 1 uM, −3 for compounds that inhibit growth by about 75-90%, −2 for about 50-70% and −1 for inhibition less than 50% growth.

T1 sequence (Q62986 whole entry): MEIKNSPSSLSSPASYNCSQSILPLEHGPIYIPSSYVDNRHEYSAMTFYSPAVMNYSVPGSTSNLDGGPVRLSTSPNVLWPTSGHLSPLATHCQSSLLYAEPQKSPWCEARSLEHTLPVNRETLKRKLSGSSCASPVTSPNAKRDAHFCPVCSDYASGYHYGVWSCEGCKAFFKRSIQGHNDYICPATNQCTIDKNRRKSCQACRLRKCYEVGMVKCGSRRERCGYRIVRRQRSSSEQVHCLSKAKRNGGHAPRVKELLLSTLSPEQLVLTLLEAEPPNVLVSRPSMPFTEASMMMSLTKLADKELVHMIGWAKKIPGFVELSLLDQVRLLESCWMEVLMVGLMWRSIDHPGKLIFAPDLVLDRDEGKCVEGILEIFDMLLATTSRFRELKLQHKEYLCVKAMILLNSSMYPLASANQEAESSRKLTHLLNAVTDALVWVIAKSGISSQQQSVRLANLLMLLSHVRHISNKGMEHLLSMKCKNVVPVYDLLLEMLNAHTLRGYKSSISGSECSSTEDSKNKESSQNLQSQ

With `O=C(c1ccc(O)cc1)N(c1ccc(O)cc1)c1ccc(O)cc1` [Compound 3a, 4-hydroxy-N,N-bis-(4-hydroxyphenyl)-benzamide] the “osteoclast differentiation / osteoclast activity” value [1] was “suppressed osteoclasts”, the “ER-β LUC expression, compound alone” value (ER-β) was “most potent in stimulating ER-β” and the “estrogenic activity in terms of uterine weight” value (“estrogenic activity in terms” below) (uterus) was “exhibited estrogenic activity, in vivo”. The “% Remaining 0 min” value ([2]; 0 min) was 100%, the “% Remaining 10 min” value ([2]; 10 min) was 140% and the “% Remaining 30 min” value ([2]; 30 min) was 118%. The “% Remaining 60 min” value ([2]; 60 min) was 103% and the “% estardiol activity, ER-α” value (ER-α) was 49.5%.
With `O=C(c1cccc(O)c1)N(c1ccccc1)c1ccccc1` [Compound 3f, 3-hydroxy-N,N-diphenyl-benzamide] the “estrogenic activity in terms” value (uterus) was “exhibited estrogenic activity, in vivo” and the pS2 expression [3] was “increased pS2 expression levels”.
For `O=S(=O)(c1ccc(O)cc1)N(c1ccccc1)c1ccccc1` [Compound 3l, 4-hydroxy-N,N-diphenyl-phenyl-sulfonamide], the “estrogenic activity in terms” value (uterus) was “exhibited no estrogenic, or anti-estrogenic activity in uterus”, the “PC-3 growth inhibition, qualitative grading” value (from here on “PC-3 growth inhibition”) (PC-3 cells) was −2 (−2 for about 50-70%) and the pS2 expression [3] was “increased pS2 expression levels”.
In the case of `O=C(c1ccccc1)N(c1ccccc1)c1ccc(OCCN2CCCCC2)cc1` [Compound 4b, N-(phenyl)-N-[4-(2-piperidin-1-ylethoxy)-phenyl]-benzamide], the “PC-3 growth inhibition” value (PC-3 cells) is reported as −1 (−1 for inhibition less than 50% growth).
For `Cl.O=C(c1ccc(OCCN2CCCCC2)cc1)N(c1ccccc1)c1ccc(O)cc1` [Compound 4e, N-(4-hydroxyphenyl)-N-phenyl-[4-(2-piperidin-1-ylethoxy)]-benzamide hydrochloride], the “estrogenic activity in terms” value (uterus) was “exhibited no estrogenic, or anti-estrogenic activity in uterus” and the “PC-3 growth inhibition” value (PC-3 cells) was −1 (−1 for inhibition less than 50% growth).
With `O=C(c1ccc(OCCN2CCCCC2)cc1)N(c1ccc(O)cc1)c1ccc(F)cc1` [Compound 4g, N-(4-fluorophenyl)-N-[4-hydroxyphenyl]-[4-(2-piperidin-1-ylethoxy)]-benzamide] the “estrogenic activity in terms” value (uterus) was “exhibited estrogenic activity, in terms of increased uterine weight; also recorded: exhibited estrogenic activity, in vivo”, the “uterine weight increase, with ICI-182,780” value (uterus; with ICI-182,780) was “ICI-182,780 reversed 4a and 4g effects on uterine weight increase” and the “uterine weight, coadministered with estrogen” value (uterus; with estrogen) was “an increase in uterine weight was observed”.
With `Cl.Cl.O=C(c1ccc(OCCN2CCCCC2)cc1)N(c1ccc(F)cc1)c1ccc(OCCN2CCCCC2)cc1` [Compound 4r, N-(4-fluorophenyl)-N-[4-(2-piperidin-1-ylethoxy)-phenyl]-[4-(2-piperidin-1-yl-ethoxy)]-benzamide dihydrochloride] the inhibition at 10 µM (PC-3 cells) was 100% and the “PC-3 growth inhibition” value (PC-3 cells) was −4 (The number −4 is for compounds that induced 100% growth inhibition at 1 uM).
In the case of `Cl.Cl.O=C(c1ccc(OCCN2CCCCC2)cc1)N(c1ccccc1)c1ccc(OCCN2CCCCC2)cc1` [Compound 4u, N-[4-(2-piperidin-1-ylethoxy)-phenyl]-N-phenyl-[4-(2-piperidin-1-ylethoxy)]-benzamide dihydrochloride], the inhibition at 10 µM (PC-3 cells) is reported as 100%, the “PC-3 growth inhibition” value (PC-3 cells) is reported as −3 (−3 for compounds that inhibit growth by about 75-90%) and the “% estardiol activity, ER-α” value (ER-α) is reported as 12.8%.
